For one compound, dexamethasone in plasma and concentration results are on record in patent publication US8071119B2, “Controlled release implantable dispensing device and method” (Sustained Nano Systems LLC, priority 2007, dated 2011).

Data set [1] is described as follows: dexamethasone levels after subconjunctival implantation in pig eyes. The data set is classed as in vivo. Conditions: pigs, after subconjunctival implantation of the 211,685 psi disc. The method, then:
A cylindrical shaped dosage form is made using dexamethasone and the polymer system was prepared as described above. The dosage form measures 7.87 mm in diameter, has a thickness of 1 mm, a weight of 60 mg and a drug loading of 6.5%. […] The dosage form is placed beneath the conjunctiva in the super temporal quadrant of the eyes of five pigs. […]

A short description of data set [2]: longer term subconjunctival implantation of pellets in rabbit ocular tissues (HPLC tissue levels, histology). The class given is in vivo. To be noted: other: subconjunctival implantation of a pellet, 13 weeks after implantation in right eye, 301,568 psi pellet. The method, then:
A study was performed to assess the effects of longer term implantation of cylindrical pellets compressed at 301,568 psi, measuring 5 mm length×3 mm diameter, in rabbit ocular tissues. A new 3-mm diameter mold (prepared and adapted to fit/interchange with the supporting hardware of the 7.87 mm diameter mold) was utilized to prepare the smaller pellets required for the rabbit eye. Due to dimensional considerations and the need to reconcile with the pressure applied for preparing the pellets and the mechanical tolerance of the mold, the incremental pressurization approach, described above was utilized, an initial pressure of 1000 lb was applied; thereafter, ˜500 lb of additional pressure was applied approximately every 5 minutes until it reached about 300,000 psi range. The height of the pellets (cylinders) produced were about 5 mm. The pressure noted was 301,568 psi. Similar to the pig model as described above, the pellets were implanted beneath the conjunctiva in the superotemporal quadrant of the right eyes. At stipulated time-points, the rabbits were euthanized to harvest the ocular tissues. Accordingly, the implant sites were dissected out and the rest of the tissues were further separated into: sclera/conjunctiva, cornea and lens. FIG. 7 depicts the histology (cryosectioned, H&E stained) of an implant site 9 weeks post-op.
The dexamethasone levels in rabbit ocular tissue is determined after 13 weeks and is reported in nanograms of dexamethasone per mg of tissue in Table 1. The sclera/conjunctiva, cornea and lens are recovered, processed, and extracted. Dexamethasone levels are determined by HPLC assay. Table 1 reports the dexamethasone recovered from the rabbit ocular tissues after 13 weeks of implantation, which is the longest duration for this study series.

Where two headings read alike, the source gives them in different places.

With `C[C@@H]1C[C@H]2[C@@H]3CCC4=CC(=O)C=C[C@]4(C)[C@@]3(F)[C@@H](O)C[C@]2(C)[C@@]1(O)C(=O)CO` [dexamethasone], the dexamethasone in plasma entry in data set [1] was “no detectable dexamethasone”. For the same compound, the concentration at 13 weeks in data set [2] (left lens (eye without implant), read-out: dexamethasone level in Left Lens) is 18300 ng/g; in data set [2] (left sclera/conjunctiva (eye without implant), read-out: dexamethasone level in Left Sclera/Conjunctiva), 20300 ng/g; in data set [2] (right cornea (implanted eye), read-out: dexamethasone level in Right Cornea), 40400 ng/g; in data set [2] (right lens (implanted eye), read-out: dexamethasone level in Right Lens), 78100 ng/g; in data set [2] (right sclera/conjunctiva (implanted eye), read-out: dexamethasone level in Right Sclera/Conjunctiva), 415000 ng/g.
